Results on 1 compound are retold here after US20240261236A1, “METHODS OF USING NMDA RECEPTOR ANTAGONISTS” (Seelos Therapeutics, Inc., priority 2021, published 2024).

In the assay the test system is adults with major depressive disorder (MDD) who are at imminent risk of suicide. Nature of the assay: S-STS CMCM total score, Phase 2 Part 1. The note with it: for S-STS CMCM score: 90 mg IN+SOC, 24 hours post-administration; for S-STS mean score: baseline 21.9. Format: in vivo, human. An excerpt:
The S-STS CMCM (version 01/01/19) is a clinician-rated outcome measure which assesses SI/B on a standard 22-item scale, as well as multiple patient and clinician-rated items. The first 16 items are rated on a Likert-type scale ranging from “not at all” (0 units) to “extremely” (4 units), where select scoring (i.e., 4 specific items are scored based on the highest score on 2 of those items) yields a total score ranging from 0 units to 52 units. The final 6 items are used only when the patient misses a visit and is unable to complete the scale; if that missed visit is due to attempted or completed suicide, the possible maximum score is 100. The CMCM also yields 5 different single-item global assessments: 1) subject-rated likelihood of a suicide attempt; 2) subject-rated treatment needed; 3) clinician global severity of suicidal impulses, thoughts, and behaviors; 4) clinician judgment of suicide risk at this time and level of management needed for suicidality; and 5) clinician judgment of subject's likelihood of making a suicide attempt or of dying by suicide in the next 7 days.
The secondary endpoints are the change from baseline at 24 hours, as well as at Day 16, in the following: • (1) S-STS total score • (2) MADRS Total at Day 16 (only) • (3) Clinical Global Impression (CGI) of Severity for SI/B (CGIS-SI/B) and Change in SI/B (CGIC-SI/B) • (4) Patient Global Impression (PGI) of Severity for SI/B (PGIS-SI/B) and Change in SI/B (PGIC-SI/B • (5) S-STS Clinician-Rated Global Severity of Suicidal Impulses, Thoughts, and Behaviors • (6) S-STS Clinician judgment of subject's risk of a suicide attempt or death by suicide at this time • (7) S-STS Clinician judgment of subject's likelihood (risk) of making a suicide attempt or of dying by suicide in the next 7 days • (8) S-STS Subject-rated global severity of suicidal impulses, thoughts, and behavior • (9) S-STS Subject-rated treatment needed score • (10) MADRS item 10 response rate (response ≤3 units) • (11) MADRS Total response (total score ≥50% reduction from baseline) • (12) MADRS Total remission (total score ≤12 units)
Subjects who were hospitalized due to an imminent risk of suicide were enrolled according to the inclusion criteria. The trial was initiated in the hospital and all subjects received standard of care (SOC) therapy for the duration of the study. Subjects were released from the hospital (approximately Day 7) once stabilized and continued the study in an outpatient manner. […] Following the conclusion of the treatment period, a 2-week safety follow-up was also conducted to determine maintenance of treatment efficacy and to monitor for any additional safety events. See, FIG. 26.

`CNC1(c2ccccc2Cl)CCCCC1=O` (racemic) [intranasal racemic ketamine, 1:1 mixture of the two enantiomers of ketamine: (R)-2-(2-chlorophenyl)-2-(methylamino)cyclohexanone and (S)-2-(2-chlorophenyl)-2-(methylamino)cyclohexanone]: the “S-STS CMCM score” value reads like this: (Subject 1, from 18 units, range 0-52) “zero”; (Subject 2, from 22 units) 3 units. Further, the “S-STS CMCM mean (SD) change from baseline” value (“S-STS CMCM mean (SD) change” below) (17 subjects enrolled, 24 hours post-dose) is recorded as −20.6 (6.34); the “S-STS CMCM mean (SD) change” value (17 subjects enrolled, Day 16) was −20.9 (3.66); the “S-STS CMCM mean (SD) change” value (final follow-up on Day 29/30) is −21.1 (3.71). The “S-STS: patients (1 patient) with 4 points within-patient change” value (Day 1) is 6%. Further, the “S-STS: patients with >14 points within-patient change from baseline” value (Day 1) stood at 94%. Further, the S-STS mean score runs as follows: (Day 1) 1.7; (Day 16) 0.0; (Day 29) 0.0. In addition, the “mean S-STS CMCM score” value (final follow-up on Day 29/30) is listed as 0.0 (0.00).
